According to US20240174622A1, “COMPOUND AND RADIOACTIVE LABELING COMPOUND” (NIHON MEDI-PHYSICS CO., LTD., priority 2021, published 2024):

What was measured:
[1] = tested on: LNCaP tumor-transplanted mouse; assay: Internal radioactivity distribution using LNCaP tumor-transplanted mouse; assay type: in vivo
Method in brief: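 Male SCID mice bearing subcutaneous LNCaP or PC-3 xenografts (40–60 days) received the 111In-labelled compound i.v. via tail vein (185–259 kBq in saline; n=2–3). Blood and organs collected at 1 to 192 hours post-dose, weighed and counted. Uptake expressed as %ID/g.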

[2] = biological target: T1, plasma albumin (mouse plasma) (Mus musculus, UniProt P07724); assay: Evaluation of binding to albumin (mouse plasma); settings: left to stand in mouse plasma
T1 construct: from tissue; host or cells: mouse plasma
Experimental: A PBS solution (37 kBq, 50 μL) of [^111In]In-PSMA-DA1 or [^111In]In-PSMA-DB was added to 200 μL of PBS, mouse plasma, human plasma, or a human serum albumin (HSA) solution (45 mg/mL) in PBS, respectively, and the mixtures were allowed to stand at 37° C. for 10 minutes. Thereafter, the reaction liquids were added to a spin column ([…]; manufactured by Cytiva), and centrifuged at 1500×g at 4° C. for 2 minutes. After separation, the radioactivity for each of the column and the eluate was measured with a gamma counter.
When a compound to be evaluated binds to albumin to form a composite, the compound passes through the column because of the increased molecular size.
As in Example 1-1 described above, PBS, mouse plasma, human plasma, and human albumin were used to evaluate binding to albumin. Evaluation was carried out by the same experimental procedure and statistical method as in Example 1-1, except that a PBS solution (37 kBq, 50 μL) of [^111In]In-PtDA was used.
Thereafter, the reaction liquid was added to a spin column (Sephadex G-50; manufactured by Cytiva), and centrifuged at 1500×g at 4° C. for 2 minutes. After separation, the radioactivity of the column and the eluate was measured with a gamma counter.

T1 sequence (P07724 25-608): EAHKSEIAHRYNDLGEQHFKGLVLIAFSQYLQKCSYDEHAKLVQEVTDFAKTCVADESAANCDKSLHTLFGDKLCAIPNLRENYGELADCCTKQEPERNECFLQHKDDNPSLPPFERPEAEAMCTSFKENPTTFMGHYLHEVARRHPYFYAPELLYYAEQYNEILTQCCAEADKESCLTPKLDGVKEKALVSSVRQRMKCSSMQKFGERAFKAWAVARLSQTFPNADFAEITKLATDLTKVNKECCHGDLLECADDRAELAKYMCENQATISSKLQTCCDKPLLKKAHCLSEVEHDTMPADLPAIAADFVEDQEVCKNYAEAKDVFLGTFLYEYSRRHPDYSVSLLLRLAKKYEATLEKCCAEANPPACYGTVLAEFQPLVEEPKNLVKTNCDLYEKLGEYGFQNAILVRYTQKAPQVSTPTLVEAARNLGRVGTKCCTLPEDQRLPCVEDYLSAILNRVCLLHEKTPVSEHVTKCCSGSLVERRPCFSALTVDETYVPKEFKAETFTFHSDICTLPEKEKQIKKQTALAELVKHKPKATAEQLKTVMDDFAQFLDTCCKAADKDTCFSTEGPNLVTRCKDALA

Blood ([1]; 1 h after administration): 31.1 ± 3.99 % ID/g | Brain ([1]; 1 h after administration): 0.56 ± 0.06 % ID/g | Heart ([1]; 1 h after administration): 7.93 ± 2.10 % ID/g | Intestine ([1]; 1 h after administration): 2.63 ± 0.42 % ID/g | Kidney ([1]; 1 h after administration): 34.3 ± 7.79 % ID/g | LNCaP Tumor ([1]; 1 h after administration): 9.41 ± 2.30 % ID/g | Liver ([1]; 1 h after administration): 4.95 ± 0.27 % ID/g | Lung ([1]; 1 h after administration): 16.2 ± 3.86 % ID/g | Muscle ([1]; 1 h after administration): 2.02 ± 0.17 % ID/g | Pancreas ([1]; 1 h after administration): 3.34 ± 0.40 % ID/g | Spleen ([1]; 1 h after administration): 8.56 ± 2.90 % ID/g | Stomach (% ID) ([1]; 1 h after administration): 0.52 ± 0.02 % ID | Blood ([1]; 4 h after administration): 26.9 ± 9.56 % ID/g | Brain ([1]; 4 h after administration): 0.52 ± 0.15 % ID/g | Heart ([1]; 4 h after administration): 7.10 ± 1.82 % ID/g | Intestine ([1]; 4 h after administration): 3.17 ± 0.73 % ID/g | Kidney ([1]; 4 h after administration): 63.5 ± 13.9 % ID/g | LNCaP Tumor ([1]; 4 h after administration): 12.1 ± 4.04 % ID/g | Liver ([1]; 4 h after administration): 4.20 ± 1.51 % ID/g | Lung ([1]; 4 h after administration): 17.9 ± 6.62 % ID/g | Muscle ([1]; 4 h after administration): 2.15 ± 1.09 % ID/g | Pancreas ([1]; 4 h after administration): 2.48 ± 1.03 % ID/g | Spleen ([1]; 4 h after administration): 9.52 ± 4.28 % ID/g | Stomach (% ID) ([1]; 4 h after administration): 0.51 ± 0.05 % ID | Blood ([1]; 24 h after administration): 14.0 ± 3.27 % ID/g | Brain ([1]; 24 h after administration): 0.36 ± 0.11 % ID/g | Heart ([1]; 24 h after administration): 4.26 ± 0.89 % ID/g | Intestine ([1]; 24 h after administration): 1.53 ± 0.44 % ID/g | Kidney ([1]; 24 h after administration): 27.1 ± 9.25 % ID/g | LNCaP Tumor ([1]; 24 h after administration): 12.6 ± 2.15 % ID/g | Liver ([1]; 24 h after administration): 2.64 ± 0.38 % ID/g | Lung ([1]; 24 h after administration): 10.5 ± 2.58 % ID/g | Muscle ([1]; 24 h after administration): 1.38 ± 0.39 % ID/g | Pancreas ([1]; 24 h after administration): 2.12 ± 0.49 % ID/g | Spleen ([1]; 24 h after administration): 6.01 ± 2.33 % ID/g | Stomach (% ID) ([1]; 24 h after administration): 0.40 ± 0.09 % ID | retention in blood ([1]; 24 hours after administration): 14.000 % ID/g | Blood ([1]; 48 h after administration): 4.18 ± 0.56 % ID/g | Brain ([1]; 48 h after administration): 0.16 ± 0.01 % ID/g | Heart ([1]; 48 h after administration): 1.66 ± 0.23 % ID/g | Intestine ([1]; 48 h after administration): 0.96 ± 0.25 % ID/g | Kidney ([1]; 48 h after administration): 9.04 ± 2.70 % ID/g | LNCaP Tumor ([1]; 48 h after administration): 8.82 ± 1.26 % ID/g | Liver ([1]; 48 h after administration): 1.59 ± 0.14 % ID/g | Lung ([1]; 48 h after administration): 4.17 ± 0.26 % ID/g | Muscle ([1]; 48 h after administration): 0.54 ± 0.10 % ID/g | Pancreas ([1]; 48 h after administration): 1.06 ± 0.12 % ID/g | Spleen ([1]; 48 h after administration): 4.28 ± 0.79 % ID/g | Stomach (% ID) ([1]; 48 h after administration): 0.25 ± 0.05 % ID | tumor/kidney ratio ([1]; 48 hours after administration): exceeded 1 | Blood ([1]; 96 h after administration): 0.76 ± 0.58 % ID/g | Brain ([1]; 96 h after administration): 0.07 ± 0.03 % ID/g | Heart ([1]; 96 h after administration): 0.75 ± 0.33 % ID/g | Intestine ([1]; 96 h after administration): 0.75 ± 0.44 % ID/g | Kidney ([1]; 96 h after administration): 3.51 ± 2.54 % ID/g | LNCaP Tumor ([1]; 96 h after administration): 5.98 ± 1.87 % ID/g | Liver ([1]; 96 h after administration): 1.10 ± 0.27 % ID/g | Lung ([1]; 96 h after administration): 1.55 ± 0.86 % ID/g | Muscle ([1]; 96 h after administration): 0.23 ± 0.09 % ID/g | Pancreas ([1]; 96 h after administration): 0.64 ± 0.24 % ID/g | Spleen ([1]; 96 h after administration): 2.42 ± 1.54 % ID/g | Stomach (% ID) ([1]; 96 h after administration): 0.08 ± 0.03 % ID | Blood ([1]; 192 h after administration): 0.16 ± 0.03 % ID/g | Brain ([1]; 192 h after administration): 0.05 ± 0.01 % ID/g | Heart ([1]; 192 h after administration): 0.41 ± 0.08 % ID/g | Intestine ([1]; 192 h after administration): 0.12 ± 0.03 % ID/g | Kidney ([1]; 192 h after administration): 1.33 ± 0.42 % ID/g | LNCaP Tumor ([1]; 192 h after administration): 4.69 ± 1.32 % ID/g | Liver ([1]; 192 h after administration): 0.69 ± 0.12 % ID/g | Lung ([1]; 192 h after administration): 0.75 ± 0.22 % ID/g | Muscle ([1]; 192 h after administration): 0.15 ± 0.05 % ID/g | Pancreas ([1]; 192 h after administration): 0.46 ± 0.08 % ID/g | Spleen ([1]; 192 h after administration): 2.69 ± 0.83 % ID/g | Stomach (% ID) ([1]; 192 h after administration): 0.05 ± 0.01 % ID | radioactivity in the eluate (in words) [2]: significantly higher
SMILES: O=C([O-])CN1CCN(C(CCC(=O)NCCCC[C@H](NC(=O)N[C@@H](CCC(=O)O)C(=O)O)C(=O)O)C(=O)[O-])CCN(CC(=O)[O-])CCN(C(CCC(=O)N[C@@H](CCCCNC(=O)CCCc2ccc(I)cc2)C(=O)O)C(=O)[O-])CC1.[111In+3] (stereo partly drawn) [[^111In]In-PSMA-DA1]
